Assay results published in PubChem BioAssay AID652148 (Molecular Libraries Program, Specialized Chemistry Center, …, 2013).
Active and inactive are the calls of the source. How the calls were made is not given here.

Target: Rho GTPase-activating protein 1 (Homo sapiens) (UniProt Q07960)
Assay: ARHGAP1 GAP activity inhibitors on Rac1 – biochemical, Biomol green phosphate read-out, selectivity assay for MgcRacGAP inhibitor project, dose response (AID 652148)
Details: p50RhoGAP-stimulated Rac1 GTP hydrolysis; for inhibition: at 100 µM (top of the series)

Chain of Rho GTPase-activating protein 1 (Homo sapiens) (Q07960 whole entry, looked up): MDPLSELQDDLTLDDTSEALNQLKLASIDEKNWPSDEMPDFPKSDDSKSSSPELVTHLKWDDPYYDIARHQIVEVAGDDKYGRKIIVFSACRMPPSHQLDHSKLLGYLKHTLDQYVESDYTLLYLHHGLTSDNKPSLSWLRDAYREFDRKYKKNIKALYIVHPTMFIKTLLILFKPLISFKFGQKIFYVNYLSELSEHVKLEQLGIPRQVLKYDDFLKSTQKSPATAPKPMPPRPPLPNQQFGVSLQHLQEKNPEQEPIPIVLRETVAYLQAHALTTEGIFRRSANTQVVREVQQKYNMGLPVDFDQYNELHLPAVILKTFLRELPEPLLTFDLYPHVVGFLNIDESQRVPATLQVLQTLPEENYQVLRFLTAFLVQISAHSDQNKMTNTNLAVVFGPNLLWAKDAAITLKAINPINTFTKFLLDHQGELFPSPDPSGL

Work on `CN(C)c1ccc(C=c2c3cc(O)ccc3n3c2cc(-c2ccccc2)[n+]3C)cc1` yielded an IC50 of 36.2 µM.
Work on `CN(C)c1ncc(C2=C(Cl)C(=O)C(N3CCCC3)=C(Cl)C2=O)s1` yielded an IC50 of 10.7 µM.
Compound `CC1OC(CC(=O)O)CC2=C1C(=O)c1c(O)cccc1C2=O` (stereo unspecified) has an IC50 of 8.81 µM.
`O=c1c2cc(F)ccc2sn1-c1ccccc1` showed an IC50 of 2.06 µM.
For `CN(C)c1ccc(/C=C/c2cc[n+](C)c3ccccc23)cc1`, the inhibition was “inactive”.
With `O=C1C(SCCO)=C(SCCO)C(=O)c2ccccc21` the inhibition was “inactive”.
With `O=C(O)c1cc(N2C(=O)C=CC2=O)cc(N2C(=O)C=CC2=O)c1` the inhibition was “inactive”.
`CN(C)c1nc(=NCc2cccs2)ss1` showed an IC50 of 14.7 µM.
With `C[n+]1c(-c2ccc(C=NNC(=O)c3ccc(C(=O)NN=Cc4ccc(-c5cn6ccccc6[n+]5C)cc4)cc3)cc2)cn2ccccc21` the inhibition was “inactive”.
Work on `Cc1cc(C)c2c(=N)c3ccccc3n(CCCCCCCCn3c4ccccc4c(=N)c4c(C)cc(C)nc43)c2n1` yielded an IC50 of 22.2 µM.
`O=C(Nc1ccccc1Cl)/C(Cl)=C(\Cl)S(=O)c1ccccc1` (stereo unspecified) gave an IC50 of 20.7 µM.
In the case of `CCN1CCN(Cc2ccc(NC(=O)c3ccc(C)c(/C=C/c4cnc(Nc5cc(N6CCNCC6)nc(C)n5)cn4)c3)cc2C(F)(F)F)CC1`, the IC50 is reported as 54.1 µM.
Work on `O=c1c2cc(F)ccc2sn1-c1ccccc1Cl` yielded an IC50 of 24.5 µM.
`O=c1c2sc3ccccc3c2[nH]c(=S)n1CCN1CCOCC1` was tested, and the inhibition was “inactive”.
`O=C(O)c1cc(N2N=C(C(F)(F)F)/C(=C/C=C/c3ccco3)C2=O)ccc1Cl` gave an IC50 of 4.68 µM.
In the case of `CC(=O)Nc1ccc2sn(-c3ccccc3)c(=O)c2c1`, the IC50 is reported as 22.3 µM.
`Nc1ccc(OCc2ccco2)cc1` was tested, and the inhibition was “inactive”.
With `Cc1ccc(C)c(-n2sc3ccc(F)cc3c2=O)c1` the inhibition was “inactive”.
Compound `O=C1C=CC(=O)c2c(O)c(N3CCN(CCO)CC3)c(Cl)c(O)c21` has an IC50 of 36.5 µM.
`COc1ccc(-n2sc3ccccc3c2=O)cc1` was tested, and the inhibition was “inactive”.
For `CCN(CC)c1ccc(C(=C2C=CC(=[N+](CC)CC)C=C2)c2ccc(N(CC)CC)cc2)cc1`, the IC50 was 22.1 µM.
Compound `Cn1ccc(=Nc2ccc(NC(=O)c3ccc(N=c4ccn(C)c5ccc([N+](=O)[O-])cc45)cc3)cc2)cc1` has an IC50 of 22.2 µM.
With `O=C(O)C1CSC(c2ccco2)N1` (stereo unspecified) the IC50 was 16.1 µM.
For `O=C1C=CC(=O)N1c1ccccc1N1C(=O)C=CC1=O`, the IC50 was 15.7 µM.
`O=c1c2ccccc2sn1-c1ccc(Cl)cc1` showed an IC50 of 12.3 µM.
With `Cc1cc(N)c2cc(NC(=O)/C=C/c3ccccc3Cl)ccc2n1` the inhibition was “inactive”.
In the case of `O=c1c2ccccc2sn1-c1ccc(Cl)cc1Cl`, the inhibition is reported as “inactive”.
`O=C1NC(=S)N(c2ccccc2)C(=O)/C1=C/c1ccco1` was tested, and the IC50 was 3.99 µM.
In the case of `Cc1c(Cl)sn(-c2ccc(Cl)cc2)c1=O`, the inhibition is reported as “inactive”.
For `COc1ccc(-n2sc3ccc(F)cc3c2=O)cc1`, the IC50 was 15 µM.
With `COc1ccc(/C=N/Nc2cc(C)nc3ccc(OC)cc23)c(OC)c1` the inhibition was “inactive”.
For `Cc1ccc(-n2sc3cc(F)ccc3c2=O)c(C)c1`, the inhibition was “inactive”.
In the case of `O=c1c2ccc(F)cc2sn1-c1ccccc1`, the inhibition is reported as “inactive”.
For `O=c1c2ccccc2sn1-c1ccccc1F`, the inhibition was “inactive”.
With `COC(=O)c1cccc(-n2sc3ccccc3c2=O)c1` the inhibition was “inactive”.
Work on `CSc1nc(N)c(N=Nc2ccc([As](=O)(O)O)cc2)c(=O)[nH]1` yielded an IC50 of 3.09 µM.
`O=C(O)c1cccc(-n2sc3ccccc3c2=O)c1` gave an IC50 of 10.3 µM.
In the case of `Nc1n[nH]c(=S)n1/N=C1/C(=O)Nc2ccccc21`, the inhibition is reported as “inactive”.
Compound `O=C1C(Cl)=C(NC(=O)c2ccccc2)C(=O)C(Cl)=C1NC(=O)c1ccccc1` has an IC50 of 46 µM.
In the case of `CC1=NNC(=O)C1Br` (stereo unspecified), the inhibition is reported as “inactive”.
Work on `O=C1C(=Cc2ccco2)CCC1=Cc1ccco1` yielded an IC50 of 26.8 µM.
`O=c1c2ccccc2sn1-c1cccc(Cl)c1` gave an IC50 of 11.2 µM.
For `COc1ccc(Nc2ccc3ccccc3c2)cc1`, the inhibition was “inactive”.
Compound `O=c1c2ccccc2sn1-c1ccc(F)cc1` has an IC50 of 35.4 µM.
`O=C1C=CC(=O)c2c(O)c(N3CCN(CCOCCO)CC3)c(Br)c(O)c21` gave an IC50 of 32.6 µM.
In the case of `COc1ccc(NC2CCCN(C(=O)C3(C)CCCCC3)C2)cc1` (stereo unspecified), the inhibition is reported as “inactive”.
